From patent publication US8546381B2, “Bridged heterocyclic compounds and methods of use” (Medivation Technologies, Inc., priority 2008, dated 2013) come the findings set out here.

Assay [1] concerns the target T1, human recombinant histamine H1 receptor (Homo sapiens, UniProt P35367).
T1 construct: expressed in transfected cells; host or cells: CHO cells
Nature of the assay: Histamine H1 radioligand binding ([3H]Pyrilamine). The conditions noted are these: compound at 1 μM; inhibition of specific [3H]Pyrilamine binding; read-out: Histamine Binding (1 μM) H1, Percentage Inhibition. As to the method: To evaluate in radioligand binding assays the activity of compounds of the invention, human recombinant histamine H1 receptor expressed in Chinese hamster ovary (CHO) cells (De Backer, M. D. et al., Biochem. Biophys. Res. Comm. 197(3):1601, 1993) in a modified Tris-HCl buffer (50 mM Tris-HCl, pH 7.4, 2 mM MgCl2, 100 mM NaCl, 250 mM Sucrose) was used. Compounds of the invention were incubated with 1.2 nM [^3H]Pyrilamine for 180 minutes at 25° C. Non-specific binding was estimated in the presence of 1 μM pyrilamine. Receptor proteins were filtered and washed, the filters were then counted to determine [^3H]Pyrilamine specifically bound. Compounds were screened at 1 μM or lower, using 1% DMSO as vehicle. Biochemical assay results are presented as the percent inhibition of specific binding in Table 2.

Assay [2] deals with T2, human recombinant histamine H2 receptor (Homo sapiens, UniProt P25021).
T2 construct: expressed in transfected cells; host or cells: CHO-K1 cells
T2 sequence (P25021 whole entry): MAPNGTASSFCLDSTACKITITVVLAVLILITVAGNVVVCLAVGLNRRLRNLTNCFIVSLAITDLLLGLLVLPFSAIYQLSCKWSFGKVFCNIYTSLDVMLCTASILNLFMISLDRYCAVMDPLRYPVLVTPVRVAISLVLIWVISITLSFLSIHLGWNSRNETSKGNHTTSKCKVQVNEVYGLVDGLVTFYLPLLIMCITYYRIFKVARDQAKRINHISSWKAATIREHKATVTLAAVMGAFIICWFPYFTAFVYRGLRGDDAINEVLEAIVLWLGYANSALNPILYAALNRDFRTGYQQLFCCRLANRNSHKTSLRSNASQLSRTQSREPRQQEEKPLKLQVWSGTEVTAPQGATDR
Nature of the assay: Histamine H2 radioligand binding ([125I]Aminopotentidine). Particulars: compound at 1 μM; inhibition of specific [125I]Aminopotentidine binding; read-out: Histamine Binding (1 μM) H2, Percentage Inhibition. Here is the method:
To evaluate in radioligand binding assays the activity of compounds of the invention, human recombinant histamine H2 receptor expressed in Chinese hamster ovary (CHO) K1 cells (Ruat, M., Proc. Natl. Acad. Sci. USA. 87(5):1658, 1990) in a 50 mM Phosphate buffer, pH 7.4 was used. Compounds of the invention were incubated with 0.1 nM [^125I]Aminopotentidine for 120 minutes at 25° C. Non-specific binding was estimated in the presence of 3 μM Tiotidine. Receptor proteins were filtered and washed, the filters were then counted to determine [^125I]Aminopotentidine specifically bound. Compounds were screened at 1 μM or lower, using 1% DMSO as vehicle. Biochemical assay results are presented as the percent inhibition of specific binding in Table 2.

Assay [3] addresses T3, human recombinant serotonin (5-Hydroxytryptamine) 5-HT2A receptor (Homo sapiens, UniProt P28223).
T3 construct: expressed in transfected cells; host or cells: CHO-K1 cells
Nature of the assay: Serotonin 5-HT2A radioligand binding ([3H]Ketanserin). The conditions noted are these: read-out: Serotonin 5-HT2A, inhibition of ligand binding (1 μM). Here is the method:
To evaluate in radioligand binding assays the activity of compounds of the invention, human recombinant serotonin (5-Hydroxytryptamine) 5-HT2A receptor expressed in Chinese hamster ovary (CHO-K1) cells (Bonhaus, D. W. et al. Br. J. Pharmacol. 115:622, 1995; Saucier, C. and Albert, P. R., J. Neurochem. 68:1998, 1997) in a 50 mM Tris-HCl buffer, pH 7.4, was used. Compounds of the invention were incubated with 0.5 nM [^3H]Ketanserin for 60 minutes at 25° C. Non-specific binding was estimated in the presence of 1 μM Mianserin. Receptor proteins were filtered and washed, the filters were then counted to determine [^3H]Ketanserin specifically bound. Compounds were screened at 1 μM or lower, using 1% DMSO as vehicle. Biochemical assay results are presented as the percent inhibition of specific binding in Table 4.

For assay [4], the target named is T4, human recombinant serotonin (5-Hydroxytryptamine) 5-HT2C receptor (Homo sapiens, UniProt P28335).
T4 construct: expressed in transfected cells; host or cells: CHO-K1 cells
T4 sequence (P28335 33-458): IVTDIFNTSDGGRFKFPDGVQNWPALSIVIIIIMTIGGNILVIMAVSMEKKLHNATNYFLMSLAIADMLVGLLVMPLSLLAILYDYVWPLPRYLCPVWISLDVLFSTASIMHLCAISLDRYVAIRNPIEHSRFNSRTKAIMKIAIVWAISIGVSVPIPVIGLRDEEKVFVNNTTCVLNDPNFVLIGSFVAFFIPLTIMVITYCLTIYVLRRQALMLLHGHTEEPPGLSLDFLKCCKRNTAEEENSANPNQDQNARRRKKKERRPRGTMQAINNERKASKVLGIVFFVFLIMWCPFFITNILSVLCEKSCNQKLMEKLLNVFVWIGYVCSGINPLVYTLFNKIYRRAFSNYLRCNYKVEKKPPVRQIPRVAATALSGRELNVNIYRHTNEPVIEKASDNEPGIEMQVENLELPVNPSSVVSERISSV
As to the kind of experiment: Serotonin 5-HT2C radioligand binding ([3H]Mesulergine). The conditions noted are these: read-out: Serotonin 5-HT2C, inhibition of ligand binding (1 μM). As to the method: To evaluate in radioligand binding assays the activity of compounds of the invention, human recombinant serotonin (5-Hydroxytryptamine) 5-HT2C receptor expressed in Chinese hamster ovary (CHO-K1) cells (Wolf, W. A. and Schutz, J. S., J. Neurochem. 69:1449, 1997) in a modified Tris-HCl buffer (50 mM Tris-HCl, pH 7.4, 0.1% Ascorbic Acid, 10 μM Pargyline) was used. Compounds of the invention were incubated with 1 nM [^3H]Mesulergine for 60 minutes at 25° C. Non-specific binding was estimated in the presence of 1 μM Mianserin. Receptor proteins were filtered and washed, the filters were then counted to determine [^3H]Mesulergine specifically bound. Compounds were screened at 1 μM or lower, using 1% DMSO as vehicle. Biochemical assay results are presented as the percent inhibition of specific binding in Table 4.

Assay [5] addresses T5, human recombinant serotonin (5-Hydroxytryptamine) 5-HT6 receptor (Homo sapiens, UniProt P50406).
T5 construct: expressed in transfected cells; host or cells: human HeLa cells
Nature of the assay: Serotonin 5-HT6 radioligand binding ([3H]LSD). The conditions noted are these: read-out: Serotonin 5-HT6, inhibition of ligand binding (1 μM). As to the method:
To evaluate in radioligand binding assays the activity of compounds of the invention, human recombinant serotonin (5-Hydroxytryptamine) 5-HT6 receptor expressed in human HeLa cells (Monsma, F. J. Jr. et al., Mol. Pharmacol. 43:320, 1993) in a modified Tris-HCl buffer (50 mM Tris-HCl, pH 7.4, 150 mM NaCl, 2 mM Ascorbic Acid, 0.001% BSA) was used. Compounds of the invention were incubated with 1.5 nM [3H]Lysergic acid diethylamide (LSD) for 120 minutes at 37° C. Non-specific binding was estimated in the presence of 5 μM Serotonin (5-HT). Receptor proteins were filtered and washed, the filters were then counted to determine [3H]LSD specifically bound. Compounds were screened at 1 μM or lower, using 1% DMSO as vehicle. Biochemical assay results are presented as the percent inhibition of specific binding in Table 4.

Assay [6] has as its target T6, human recombinant serotonin (5-Hydroxytryptamine) 5-HT7 receptor (Homo sapiens, UniProt P34969).
T6 construct: expressed in transfected cells; host or cells: CHO cells
Nature of the assay: Serotonin 5-HT7 radioligand binding ([3H]LSD). Particulars: read-out: Serotonin 5-HT7, inhibition of ligand binding (1 μM). As to the method: To evaluate in radioligand binding assays the activity of compounds of the invention, human recombinant serotonin (5-Hydroxytryptamine) 5-HT7 receptor expressed in Chinese hamster ovary (CHO) cells (Roth, B. L. et al., J. Pharmacol. Exp. Ther. 268:1403, 1994; Shen, Y. et al., J. Biol. Chem. 268:18200, 1993) in a modified Tris-HCl buffer (50 mM Tris-HCl, pH 7.4, 10 mM MgCl2, 0.5 mM EDTA) was used. Compounds of invention were incubated with 5.5 nM [^3H] Lysergic acid diethylamide (LSD) for 2 hours at 25° C. Non-specific binding was estimated in the presence of 10 μM Serotonin (5-HT). Receptor proteins were filtered and washed, the filters were then counted to determine [^3H]LSD specifically bound. Compounds were screened at 1 μM or lower, using 1% DMSO as vehicle. Biochemical assay results are presented as the percent inhibition of specific binding in Table 4.

Assay [7] addresses T7, human recombinant dopamine D2L receptor (Homo sapiens, UniProt P14416).
T7 construct: expressed in transfected cells; host or cells: CHO cells
As to the kind of experiment: Dopamine D2L radioligand binding ([3H]Spiperone). Particulars: read-out: Dopamine (1 μM) D2L, inhibition of ligand binding. As to the method: To evaluate in radioligand binding assays the activity of compounds of the invention, human recombinant dopamine D2L receptor expressed in Chinese hamster ovary (CHO) cells (Grandy, D. K. et al. Proc. Natl. Acad. Sci. USA. 86:9762, 1989; Hayes, G. et al., Mol. Endocrinol. 6:920, 1992) in a modified Tris-HCl buffer (50 mM Tris-HCl, pH 7.4, 1.4 mM Ascorbic Acid, 0.001% BSA, 150 mM NaCl) was used. Compounds of the invention were incubated with 0.16 nM [^3H]Spiperone for 120 minutes at 25° C. Non-specific binding was estimated in the presence of 10 μM Haloperidol. Receptor proteins were filtered and washed, the filters were then counted to determine [^3H]Spiperone specifically bound. Compounds were screened at 1 μM or lower, using 1% DMSO as vehicle. Biochemical assay results are presented as the percent inhibition of specific binding in Table 3.

Each structure is given as a SMILES string.

T7 sequence (P14416 whole entry): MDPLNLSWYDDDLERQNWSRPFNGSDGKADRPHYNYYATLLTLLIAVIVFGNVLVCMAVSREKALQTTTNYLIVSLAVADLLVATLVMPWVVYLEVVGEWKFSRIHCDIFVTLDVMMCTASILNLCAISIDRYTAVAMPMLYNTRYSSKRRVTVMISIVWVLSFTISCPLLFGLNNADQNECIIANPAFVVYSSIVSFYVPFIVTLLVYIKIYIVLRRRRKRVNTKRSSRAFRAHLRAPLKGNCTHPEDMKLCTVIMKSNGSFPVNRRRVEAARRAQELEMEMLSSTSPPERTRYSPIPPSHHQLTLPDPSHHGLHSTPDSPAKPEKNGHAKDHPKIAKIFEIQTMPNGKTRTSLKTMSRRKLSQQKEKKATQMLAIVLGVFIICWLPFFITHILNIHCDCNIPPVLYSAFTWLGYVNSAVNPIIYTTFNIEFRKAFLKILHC
T3 sequence (P28223 whole entry): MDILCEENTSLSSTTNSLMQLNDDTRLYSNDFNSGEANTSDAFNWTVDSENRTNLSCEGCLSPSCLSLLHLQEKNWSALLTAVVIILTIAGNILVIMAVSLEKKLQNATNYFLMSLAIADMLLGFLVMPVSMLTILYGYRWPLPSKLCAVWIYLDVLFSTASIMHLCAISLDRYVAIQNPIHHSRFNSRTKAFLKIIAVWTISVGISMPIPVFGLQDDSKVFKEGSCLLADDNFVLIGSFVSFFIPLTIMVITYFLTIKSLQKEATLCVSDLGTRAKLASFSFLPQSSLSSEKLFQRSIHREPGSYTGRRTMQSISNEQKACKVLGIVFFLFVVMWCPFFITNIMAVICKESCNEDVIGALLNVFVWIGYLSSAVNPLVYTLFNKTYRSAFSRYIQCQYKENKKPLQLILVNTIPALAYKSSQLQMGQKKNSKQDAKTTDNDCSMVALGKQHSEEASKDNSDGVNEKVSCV
T5 sequence (P50406 whole entry): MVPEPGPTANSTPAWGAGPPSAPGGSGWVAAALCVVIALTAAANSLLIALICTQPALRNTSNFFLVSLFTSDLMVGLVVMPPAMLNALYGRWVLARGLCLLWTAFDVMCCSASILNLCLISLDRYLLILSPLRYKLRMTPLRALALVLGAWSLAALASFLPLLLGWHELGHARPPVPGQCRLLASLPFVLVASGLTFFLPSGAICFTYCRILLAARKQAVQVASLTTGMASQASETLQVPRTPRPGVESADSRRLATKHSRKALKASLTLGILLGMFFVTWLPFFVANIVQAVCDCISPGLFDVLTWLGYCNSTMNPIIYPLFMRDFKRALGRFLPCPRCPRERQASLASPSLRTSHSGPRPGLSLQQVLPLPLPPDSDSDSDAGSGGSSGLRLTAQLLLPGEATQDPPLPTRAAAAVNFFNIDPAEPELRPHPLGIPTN
T1 sequence (P35367 whole entry): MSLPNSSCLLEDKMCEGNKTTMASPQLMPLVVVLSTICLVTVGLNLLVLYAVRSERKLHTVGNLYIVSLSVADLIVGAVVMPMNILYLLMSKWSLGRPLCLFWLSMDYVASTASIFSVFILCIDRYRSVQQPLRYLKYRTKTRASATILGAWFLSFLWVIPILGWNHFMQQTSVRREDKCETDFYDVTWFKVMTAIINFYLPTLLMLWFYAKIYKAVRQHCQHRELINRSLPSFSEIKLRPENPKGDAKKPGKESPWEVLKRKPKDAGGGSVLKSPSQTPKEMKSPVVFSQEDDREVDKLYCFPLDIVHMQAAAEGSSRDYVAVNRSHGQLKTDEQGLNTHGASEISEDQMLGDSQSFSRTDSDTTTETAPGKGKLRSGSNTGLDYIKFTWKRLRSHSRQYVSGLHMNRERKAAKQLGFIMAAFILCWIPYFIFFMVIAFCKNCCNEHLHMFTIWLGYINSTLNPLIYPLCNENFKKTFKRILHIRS
T6 sequence (P34969 whole entry): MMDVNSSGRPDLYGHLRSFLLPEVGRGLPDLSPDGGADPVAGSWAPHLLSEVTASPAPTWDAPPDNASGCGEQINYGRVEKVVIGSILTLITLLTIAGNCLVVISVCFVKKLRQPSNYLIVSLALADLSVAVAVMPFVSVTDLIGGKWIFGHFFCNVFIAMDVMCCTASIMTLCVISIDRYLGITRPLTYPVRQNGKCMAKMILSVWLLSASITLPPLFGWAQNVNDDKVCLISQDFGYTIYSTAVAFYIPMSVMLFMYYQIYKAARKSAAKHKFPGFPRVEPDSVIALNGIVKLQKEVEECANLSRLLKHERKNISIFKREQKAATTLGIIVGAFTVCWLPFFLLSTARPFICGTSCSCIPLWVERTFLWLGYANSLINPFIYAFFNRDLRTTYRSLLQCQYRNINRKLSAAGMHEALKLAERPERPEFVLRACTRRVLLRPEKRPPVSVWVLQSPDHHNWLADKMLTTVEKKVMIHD

Turning to `C/C(=C\n1c2c(c3cc(Cl)ccc31)C1CCC(C2)N1C)c1ccc(Cl)c(Cl)c1` (centres unmarked) [Compound 132], the inhibition at 1 µM turned out to be 87% in assay [1]; 99% in assay [2]; 100% in assay [3]; 95% in assay [4]; 31% in assay [5]; 81% in assay [6].
`COc1ccc(C#Cn2c3c(c4cc(C)ccc42)C2CCC(C3)N2C)cc1F` (centres unmarked) [Compound 155]: the inhibition at 1 µM in assay [1] worked out at 10%; in assay [2] it was 84%; in assay [7], 10%; in assay [3], 100%; in assay [4] it was 99%; in assay [5] it was 49%. Further, the inhibition at 1 µM in assay [6] amounted to 24%.
Take `C/C(=C\n1c2c(c3cc(C)ccc31)C1CCC(C2)N1C)c1cccnc1` (centres unmarked) [Compound 129]: the inhibition at 1 µM in assay [1] is 5%; in assay [2] it was 26%; in assay [7], 8%; in assay [3] it was 88%; in assay [4], 72%; in assay [5], 19%. Also, in assay [6], the inhibition at 1 µM is 80%.
As to `C/C(=C\n1c2c(c3cc(C)ccc31)C1CCC(C2)N1C)c1ccccc1F` (centres unmarked) [Compound 164], the inhibition at 1 µM is 65% in assay [1]; 41% in assay [2]; 12% in assay [7]; 94% in assay [3]; 93% in assay [4]; 57% in assay [5]. Also, the inhibition at 1 µM in assay [6] was found to be 96%.
As for `COc1ccc(C#Cn2c3c(c4cc(Cl)ccc42)C2CCC(C3)N2C)cc1F` (centres unmarked) [Compound 154], the inhibition at 1 µM came to 30% in assay [1]; 87% in assay [2]; 13% in assay [7]; 96% in assay [3]; 97% in assay [4]; 31% in assay [5]. In addition, the inhibition at 1 µM in assay [6] is 21%.
In the case of `C/C(=C\n1c2c(c3cc(Cl)ccc31)C1CCC(C2)N1C)c1cccnc1` (centres unmarked) [Compound 128], the inhibition at 1 µM in assay [1] was found to be 15%; in assay [2], 21%; in assay [7] it was 21%; in assay [3], 91%; in assay [4], 77%; in assay [5] it was 62%. Further, in assay [6], the inhibition at 1 µM worked out at 66%.

The inhibition is the change of the read-out against control, counted positive when it falls.
